Reference: patent US9511045B2 (UNIVERSITE D'AUVERGNE CLERMONT I, priority 2010, dated 2016)

Test system: Male Sprague-Dawley rats
Settings: 72 hours after IP injection of oxaliplatin
Protocol: Male Sprague-Dawley rats (Charles River Lab, France), weighing 175 to 200 grams, were placed in a cage with food and water ad libitum, in a temperature-controlled environment at 22° C. with a 12 h/12 h day/night cycle. The experiments were conducted under blind conditions in a calm room by the same experimenter, while taking care to comply with the regulations on animal experimentation.
This low-temperature immersion test made it possible to measure the hypersensitivity to cold in the animals. The bottom third of the rat's tail was immersed in a temperature-controlled bath 10° C. until it was removed or until the “cut-off” set at 30 seconds (Necker and Hellon. 1978 Pain. 4: 231-242).
The experimental data was analyzed using the software program Sigma STAT, version 3.0 for Windows (STAT32 Software Inc., San Diego, Calif.). The kinetics of the reaction times to the temperature-based stimulation were analyzed using a two-factor variance analysis followed by a multiple comparison test to study the change over time. […] The significance threshold was P<0.05.

Compound: O=C(O)C(=O)O.[NH-][C@@H]1CCCC[C@H]1[NH-].[Pt+2] [oxaliplatin]
- effect on cold sensitivity threshold (10° C.) (FIG. 1): reduced the cold sensitivity threshold
- time after which the rat removed its tail (tail immersed in water at 10° C., untreated rat around 12 seconds, cut-off 30 seconds): 7 s
